Source: US7955808B2, “Bitter taste receptors” (Deutsches Institut für Ernährungsorschung, Stiftung des …, priority 2002, dated 2011)

How the values were obtained:
hTAS2R14 = target: T1, hTAS2R14 (Homo sapiens, UniProt Q9NYV8); test: FLIPR assay, heterologous expression of hTAS2R14; assay type: cell-based
T1 construct: gene-specific primers that span the complete coding region of the individual hTAS2R genes; first 45 amino acids of rat somatostatin type 3 receptor (cell surface-targeting signal) (N); expressed in transfected cells; host or cells: HEK-293T-Gα16gustducin44 cells (alternatively HEK-293 co-transfected with phospholipase-Cβ2 and α-gustducin)
T1 sequence (Q9NYV8 1-317): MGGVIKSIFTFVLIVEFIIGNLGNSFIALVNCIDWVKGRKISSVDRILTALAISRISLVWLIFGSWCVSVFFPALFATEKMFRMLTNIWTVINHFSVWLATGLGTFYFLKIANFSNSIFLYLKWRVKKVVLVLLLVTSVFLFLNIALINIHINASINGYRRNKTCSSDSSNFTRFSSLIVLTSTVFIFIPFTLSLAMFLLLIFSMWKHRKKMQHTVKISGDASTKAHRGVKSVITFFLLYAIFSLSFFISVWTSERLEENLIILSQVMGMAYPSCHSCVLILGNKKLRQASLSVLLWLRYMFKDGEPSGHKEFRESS
Description: (§1) Transient transfection of TAS2Rs into HEK-293T-Gα16gustducin44 cells.

hTAS2R10 [1] = target: T2, hTAS2R10 (Homo sapiens, UniProt Q9NYW0, T156M); test: FLIPR calcium assay, hTAS2R10-expressing HEK293/15 transfectants; assay type: cell-based
T2 construct: gene-specific primers that span the complete coding region of the individual hTAS2R genes; first 45 amino acids of rat somatostatin type 3 receptor (cell surface-targeting signal) (N); expressed in transfected cells; host or cells: HEK-293T-Gα16gustducin44 cells (alternatively HEK-293 co-transfected with phospholipase-Cβ2 and α-gustducin)
T2 sequence (Q9NYW0 1-307 T156M): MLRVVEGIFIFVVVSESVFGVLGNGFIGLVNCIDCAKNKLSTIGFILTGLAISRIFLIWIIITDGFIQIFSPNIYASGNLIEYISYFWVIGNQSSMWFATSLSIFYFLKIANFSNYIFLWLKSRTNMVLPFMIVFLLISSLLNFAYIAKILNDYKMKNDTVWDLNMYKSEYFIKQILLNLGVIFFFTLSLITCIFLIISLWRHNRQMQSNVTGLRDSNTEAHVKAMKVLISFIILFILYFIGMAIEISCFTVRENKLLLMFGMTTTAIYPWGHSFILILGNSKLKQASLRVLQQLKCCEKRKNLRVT
Method: A fluorescence imaging plate reader (FLIPR, Molecular Devices) was used to functionally screen cell populations transiently transfected with expression vectors encoding the above-described 24 bitter receptors and to establish concentration-response curves for hTAS2R16 and hTASR10. […] For the FLIPR experiments the HEK293/15 cells were grown to 50% confluence. The cells were then seeded at a density of 3×10^3 cells per well into 96-well black-wall, clear-bottom microtiter plates (Greiner). After 48 h the cells in each well were transfected using Lipofectamine 2000 and 24-30 h later were loaded with FIuo4AM (Molecular Probes). […] The responses of five wells containing cells expressing the same receptor and that received the same stimulus (i.e., the same compound at the same concentration) were averaged. Calcium traces were subtracted that were determined in triplicate of mock-transfected cells stimulated with the same concentration of tastant. The calculations rest on at least four independent transfection experiments.

hTAS2R10 [2] = target: T2, hTAS2R10; test: FLIPR assay, heterologous expression of hTAS2R10; assay type: cell-based
Description: as §1

human panelists [3] = test: Human taste adaptation experiment; assay type: in vivo; conditions: for bitterness after prolonged stimulation with phenyl-beta-D-glucopyranoside (cross-adaptation): in vivo; for initial bitterness score by test panel: 8 mM, 15 s
Method: To investigate adaptation, the 8 panelists first maintained aqueous solutions (5 ml) of phenyl-β-D-glucopyranoside (8 mM), phenyl-alpha-D-glucopyranoside (180 mM), salicin (8 mM), or helicin (8 mM) for 15 s in their oral cavities and evaluated the bitter intensity as described above. After 30 min, they kept a denatonium benzoate solution (5 ml, 0.0003 mM) for 15 s in their mouth and evaluated its bitterness. The panelists spat off the denatonium benzoate solution, took up the phenyl-β-D-glucopyranoside or the phenyl-alpha-D-glucopyranoside solutions orally for 120 s or 180 s and judged their bitterness intensity after 15, 30, 60, 120 and 180s. Thereafter, the panelists spat off these solutions and then sequentially took up salicin, helicin (5 ml, 8 mM) and denatonium benzoate (5 ml, 0.0003 mM) and evaluated bitterness intensities of these solutions after 15 s. After an additional 30 min, the first experiment was repeated. The data of three different sessions for each panelist were averaged. Intensity values between individuals and separate sessions differed by not more than ±0.5 units.

hTAS2R16 [4] = target: T3, hTAS2R16 (Homo sapiens, UniProt Q9NYV7, R222H); test: Single-cell Ca2+ imaging, hTAS2R16-transfected HEK293/15 cells (selectivity, cross-desensitization); assay type: cell-based
T3 construct: gene-specific primers that span the complete coding region of the individual hTAS2R genes; first 45 amino acids of rat somatostatin type 3 receptor (cell surface-targeting signal) (N); expressed in transfected cells; host or cells: HEK293/15 cells (HEK293 stably expressing Galpha15), transient transfection
T3 sequence (Q9NYV7 1-291 R222H): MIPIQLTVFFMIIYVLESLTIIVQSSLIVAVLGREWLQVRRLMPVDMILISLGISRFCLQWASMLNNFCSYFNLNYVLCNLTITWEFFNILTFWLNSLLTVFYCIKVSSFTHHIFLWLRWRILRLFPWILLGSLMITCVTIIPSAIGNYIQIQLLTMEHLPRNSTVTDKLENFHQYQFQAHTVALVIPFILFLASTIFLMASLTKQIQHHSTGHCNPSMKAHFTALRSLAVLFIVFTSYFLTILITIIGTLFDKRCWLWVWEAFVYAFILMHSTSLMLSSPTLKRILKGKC
Method: A fluorescence imaging plate reader (FLIPR, Molecular Devices) was used to functionally screen cell populations transiently transfected with expression vectors encoding the above-described 24 bitter receptors and to establish concentration-response curves for hTAS2R16 and hTASR10. […] For the FLIPR experiments the HEK293/15 cells were grown to 50% confluence. […] After 48 h the cells in each well were transfected using Lipofectamine 2000 and 24-30 h later were loaded with FIuo4AM (Molecular Probes). Thereafter they were stimulated with bitter compounds (SigmaAldrich, further purified by reversed-phase HPLC to >99% purity). Calcium signals were recorded simultaneously from each well at 1 Hz at 510 nm after excitation at 488 nm and the recordings were corrected for cell density. […]
Single-cell Ca^2+ imaging was performed with the hTAS2R16-transfected HEK293/15 cells as described in Cell 95, 917-926 (1998), but with the following modifications: The Till Photonics imaging system (Munich, Germany) was used in which a monochromator is connected by a quartz fiber lightguide and an epifluorescence condenser to an inverted Olympus IX50 microscope equipped with a UApo/340 40×1.35 oil-immersion lens. […] The 5 s interval camera pictures of all cells in the microscope field of vision permanently were stored and analyzed offline. […]

hTAS2R16 [5] = target: T3, hTAS2R16; test: FLIPR assay, heterologous expression of hTAS2R16; assay type: cell-based; conditions: hTAS2R16; for EC50: read-out: EC50
Description: as §1

hTAS2R16 [6] = target: T3, hTAS2R16; test: FLIPR calcium assay, hTAS2R16-expressing HEK293/15 transfectants; assay type: cell-based
Method: A fluorescence imaging plate reader (FLIPR, Molecular Devices) was used to functionally screen cell populations transiently transfected with expression vectors encoding the above-described 24 bitter receptors and to establish concentration-response curves for hTAS2R16 and hTASR10. […] For the FLIPR experiments the HEK293/15 cells were grown to 50% confluence. […] After 48 h the cells in each well were transfected using Lipofectamine 2000 and 24-30 h later were loaded with FIuo4AM (Molecular Probes). Thereafter they were stimulated with bitter compounds (SigmaAldrich, further purified by reversed-phase HPLC to >99% purity). Calcium signals were recorded simultaneously from each well at 1 Hz at 510 nm after excitation at 488 nm and the recordings were corrected for cell density. […] The calculations rest on at least four independent transfection experiments.
EC50 and threshold values obtained with hTAS2R16-expressing transfectants are shown in Table 1 below and the results are described in Example 4.

human panelists [7] = test: Human taste experiments: bitter thresholds and dose-response by sensory panel; assay type: in vivo; conditions: for Threshold Value Human: bitter threshold, triangle test, tap water; for EC50: bitterness intensity dose-response
Method: 15 experienced panelists in a sensory panel room at 22-25° C. determined bitter thresholds on three different sessions using a triangle test with tap water as solvent, according to methodology set out in J. Agric. Food Chem., 49, 231-238 (2001), or Mailgaard M et al, “Sensory Evaluation Techniques” (CRC Press LLC, New York 1999). For dose-response relations, bitter tastant concentration series were presented to 10 trained panelists in random order. The panelists ranked the samples in increasing order of intensity and, for each concentration, evaluated bitterness intensity on a scale from 0 to 5 (ref. 24). The dose-response curves of three different sessions were averaged. The intensity values between individuals and separate sessions differed by not more than 0.5 units.

hT2R4 receptor = target: T4, hT2R4 receptor (Homo sapiens, UniProt Q9NYW5); conditions: concentrations needed two orders of magnitude above human taste thresholds; cited from earlier work
T4 sequence (Q9NYW5 1-299): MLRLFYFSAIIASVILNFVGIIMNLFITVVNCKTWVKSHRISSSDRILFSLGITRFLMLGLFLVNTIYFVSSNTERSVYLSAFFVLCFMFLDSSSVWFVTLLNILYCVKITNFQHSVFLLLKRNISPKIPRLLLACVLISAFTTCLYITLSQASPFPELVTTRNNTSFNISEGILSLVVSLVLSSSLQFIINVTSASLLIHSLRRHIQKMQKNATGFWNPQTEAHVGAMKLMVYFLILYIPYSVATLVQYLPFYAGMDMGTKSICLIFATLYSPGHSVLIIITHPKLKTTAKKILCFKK

Compound: CC(C)C[C@H](N)C(=O)O [leucine]
- receptor activation (in words) (hTAS2R14): activated

Compound: N[C@@H](Cc1c[nH]cn1)C(=O)O [histidine]
- receptor activation (in words) (hTAS2R14): activated

Compound: N[C@@H](Cc1ccccc1)C(=O)O [phenylalanine]
- receptor activation (in words) (hTAS2R14): activated

Compound: O=C1C[C@@H]2OCC=C3CN4CC[C@]56c7ccccc7N1[C@H]5[C@H]2[C@H]3C[C@H]46 [Strychnine]
- EC50 (hTAS2R10 [1]): 5 to 20 µM
- threshold of activation (hTAS2R10 [1]; hTAS2R10 transfectants): approximately 0.1 μM
- EC50 (hTAS2R10 [2]): 40 µM
- Approx. Threshold (hTAS2R10 [2]; hTAS2R10): 0.003 mM
- receptor activation (in words) (hTAS2R10 [2]; hTAS2R10): activated

Compound: N[C@@H](Cc1ccc(O)cc1)C(=O)O [L-Tyrosine]
- reacts at (hTAS2R14): 1 mM
- receptor activation (in words) (hTAS2R14): activated

Compound: CC[N+](CC)(CC(=O)Nc1c(C)cccc1C)Cc1ccccc1.O=C([O-])c1ccccc1 [Denatonium benzoate]
- bitterness after prolonged stimulation with phenyl-beta-D-glucopyranoside (cross-adaptation) (human panelists [3]): not
- activation of TAS2R16 (hTAS2R16 [4]): cannot activate
- Approx. Threshold (hTAS2R10 [2]; hTAS2R10): 0.003 mM
- receptor activation (in words) (hTAS2R10 [2]; hTAS2R10): activated
- EC50 (hTAS2R10 [2]; hTAS2R10, read-out: EC50): 70 µM

Compound: OCc1ccccc1O[C@@H]1O[C@H](CO)[C@@H](O)[C@H](O)[C@H]1O [Compound 2, salicin]
- initial bitterness score by test panel (human panelists [3]): equally intensely bitter
- bitterness after prolonged stimulation with phenyl-beta-D-glucopyranoside (cross-adaptation) (human panelists [3]): less bitter
- Threshold (hTAS2R16 [5]): 0.07 ± 0.02 mM
- EC50 (hTAS2R16 [5]): 1.4 ± 0.2 mM
- response after repeated stimulation with phenyl-beta-D-glucopyranoside (cross-desensitization) (hTAS2R16 [4]; hTAS2R16-expressing cells): largely diminished responses
- EC50 (hTAS2R16 [6]): 1.4 mM
- Threshold Value FLIPR (hTAS2R16 [6]): 0.07 ± 0.02 mM
- Threshold Value Human (human panelists [7]): 0.2 ± 0.1 mM
- EC50 (human panelists [7]): 1.1 mM

Compound: OC[C@H]1O[C@@H](Oc2ccccc2)[C@H](O)[C@@H](O)[C@@H]1O [Compound 1, phenyl-beta-D-glucopyranoside]
- initial bitterness score by test panel (human panelists [3]): equally intensely bitter
- own bitterness during prolonged stimulation (adaptation) (human panelists [3]; 120 s or 180 s in the mouth): declined
- Threshold (hTAS2R16 [5]): 0.07 ± 0.02 mM
- EC50 (hTAS2R16 [5]): 1.1 ± 0.1 mM
- EC50 (hTAS2R16 [6]): 1.1 mM
- Threshold Value FLIPR (hTAS2R16 [6]): 0.07 ± 0.02 mM
- Threshold Value Human (human panelists [7]): 0.1 ± 0.05 mM
- EC50 (human panelists [7]): 0.7 mM

Compound: CC[N+](CC)(CC(=O)Nc1c(C)cccc1C)Cc1ccccc1 [denatonium]
- in vitro response of the receptor (hT2R4 receptor): provided a response

Compound: N[C@@H](Cc1c[nH]c2ccccc12)C(=O)O [tryptophan]
- receptor activation (in words) (hTAS2R14): activated

Compound: O=Cc1ccccc1O[C@@H]1O[C@H](CO)[C@@H](O)[C@H](O)[C@H]1O [Compound 3, helicin]
- initial bitterness score by test panel (human panelists [3]): equally intensely bitter
- bitterness after prolonged stimulation with phenyl-beta-D-glucopyranoside (cross-adaptation) (human panelists [3]): less bitter
- Threshold (hTAS2R16 [5]): 0.3 ± 0.1 mM
- EC50 (hTAS2R16 [5]): 2.3 ± 0.4 mM
- EC50 (hTAS2R16 [6]): 2.3 mM
- Threshold Value FLIPR (hTAS2R16 [6]): 0.3 ± 0.1 mM
- Threshold Value Human (human panelists [7]): 0.4 ± 0.1 mM
- EC50 (human panelists [7]): 2.2 mM
